From paper PMC4122130 (Journal of neuroscience research, 2012)

Molecular target: α7 nAChR (Homo sapiens, UniProt P36544)
Experiment: whole-cell patch clamp, inhibition of […] ACh-evoked currents by […] 4R
Assay type: cell-based
Conditions: shsy5y cells

Chain of α7 nAChR (P36544 23-502): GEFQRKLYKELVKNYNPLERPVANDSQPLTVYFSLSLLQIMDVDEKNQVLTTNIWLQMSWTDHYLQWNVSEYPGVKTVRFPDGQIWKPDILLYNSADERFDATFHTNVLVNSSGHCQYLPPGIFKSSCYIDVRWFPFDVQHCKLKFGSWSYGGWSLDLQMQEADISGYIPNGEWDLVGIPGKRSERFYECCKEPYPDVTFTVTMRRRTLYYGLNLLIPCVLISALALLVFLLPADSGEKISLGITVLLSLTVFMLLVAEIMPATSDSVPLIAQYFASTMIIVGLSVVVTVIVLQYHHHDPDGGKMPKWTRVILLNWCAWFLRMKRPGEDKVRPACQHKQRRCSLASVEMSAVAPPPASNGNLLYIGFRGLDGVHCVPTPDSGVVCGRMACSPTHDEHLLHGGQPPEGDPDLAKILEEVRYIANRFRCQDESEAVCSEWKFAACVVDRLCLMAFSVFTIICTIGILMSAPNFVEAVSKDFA

Compound: C/C1=C\[C@H](O)C[C@@](C)(O)/C=C/[C@H](C(C)C)CC/C(C)=C/CC1 [4R, (1S,2E,4R,6R,7E,11E)-cembra-2,7,11-triene-4,6-diol]
- % inhibition at 25 μM: 82% ± 18% inhibition at 25 μM
